For 19 compounds, IC50 results are on record in patent US9656990B2, “Cathepsin cysteine protease inhibitors” (Merck Sharp & Dohme Corp., priority 2014, dated 2017).

The target of one assay is human cathepsin K (UniProt P43236, Y175D/V274L, species not given). The assay is described as follows: Cathepsin K Assay. Conditions: IP from dose response curve; Z-Leu-Arg-AMC substrate, pH 5.5; read-out: hrbCat K (IP (nM)). The class given is biochemical.
The target in the next assay is T1, human cathepsin F (Homo sapiens, UniProt Q9UBX1).
T1 sequence (Q9UBX1 271-484): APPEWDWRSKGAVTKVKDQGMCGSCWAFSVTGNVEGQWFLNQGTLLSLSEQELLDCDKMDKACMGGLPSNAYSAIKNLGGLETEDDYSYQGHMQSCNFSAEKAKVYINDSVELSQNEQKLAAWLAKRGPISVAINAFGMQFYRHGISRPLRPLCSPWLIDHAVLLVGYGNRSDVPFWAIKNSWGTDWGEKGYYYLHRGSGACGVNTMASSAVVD
The experiment in a line: Cathepsin F Assay. The following applies: IP from dose response curve; Z-Phe-Arg-AMC substrate, pH 5.5; read-out: hCat F (IP (nM)). It counts as biochemical. The protocol: Serial dilutions (1/3) from 500 μM down to 0.025 μM of test compounds were prepared in dimethyl sulfoxide (DMSO). Then 0.5 μL of DMSO from each dilution were added to 18.75 μL of assay buffer (MES, 50 mM (pH 5.5); EDTA, 2.5 mM; DTT, 2.5 mM and 10% DMSO) containing human cathepsin F (10 nM) in assay buffer solution. The assay solutions were mixed for 5-10 seconds on a shaker plate and incubated for 15 minutes at room temperature. Z-Phe-Arg-AMC (8 μM) in 6.25 μL of assay buffer was added to the assay solutions. Hydrolysis of the coumarin leaving group (AMC) was followed by spectrofluorometry (Exλ=360 nm; Emλ=460 nm) for 20 minutes. Percent of inhibition were calculated by fitting experimental values to standard mathematical model for dose response curve.

Each structure is given as a SMILES string.

On to `N#CC1(NC(=O)[C@@H]2C[C@@H](F)CC[C@H]2c2nn(-c3ncccc3F)cc2-c2ccc(N3CCS(=O)(=O)CC3)cc2)CC1` [Example 29, (1R,2R,5S)-N-(1-cyanocyclopropyl)-2-(4-(4-(1,1-dioxidothiomorpholino)phen-yl)-1-(3-fluoropyridin-2-yl)-1H-pyrazol-3-yl)-5-fluorocyclohexanecarboxamide], for which the IC50 was 6.2 nM on human cathepsin K and 6780 nM at human cathepsin F.

As to `N#CC1(NC(=O)[C@@H]2CCCC[C@H]2c2nn(-c3ccc(F)cn3)c(CO)c2-c2ccc(N3CCS(=O)(=O)CC3)cc2)CC1` [Example 30, (1R,2R)-N-(1-cyanocyclopropyl)-2-(4-(4-(1,1-dioxidothiomorpholino)phen-yl)-1-(5-fluoropyridin-2-yl)-5-(hydroxymethyl)-1H-pyrazol-3-yl)cyclohexanecarboxamide], the IC50 amounted to 11 nM at human cathepsin K and 5870 nM on human cathepsin F.

In the case of `Cc1c(-c2ccc(N3CCS(=O)(=O)CC3)cc2)c([C@@H]2CCC(F)(F)C[C@H]2C(=O)N[C@H](C#N)C(C)C)nn1-c1ccc(F)cn1` [Example 31, (1R,2R)-N-((S)-1-cyano-2-methylpropyl)-2-(4-(4-(1,1-dioxidothiomorpholino)phen-yl)-1-(5-fluoropyridin-2-yl)-5-methyl-1H-pyrazol-3-yl)-5,5-difluorocyclohexanecarbox-amide], the IC50 on human cathepsin K came to 1.63 nM; on human cathepsin F, 115 nM.

Regarding `CC(C)[C@@H](C#N)NC(=O)[C@@H]1CCC(F)(F)C[C@H]1c1nn(-c2ncccc2F)cc1-c1ccc(N2CCS(=O)(=O)CC2)cc1` [Example 32, (1R,2R)-N-((S)-1-cyano-2-methylpropyl)-2-(4-(4-(1,1-dioxidothiomorpholino)phen-yl)-1-(3-fluoropyridin-2-yl)-1H-pyrazol-3-yl)-4,4-difluorocyclohexanecarbox-amide], the figures for the IC50 on human cathepsin K and at human cathepsin F were 7.11 nM and 2780 nM, respectively.

As for `N#CC1(NC(=O)[C@@H]2CCC(F)(F)C[C@H]2c2nn(-c3ncccc3F)cc2-c2ccc(N3CCS(=O)(=O)CC3)cc2)CC1` [Example 33, (1R,2R)-N-(1-cyanocyclopropyl)-2-(4-(4-(1,1-dioxidothiomorpholino)phen-yl)-1-(3-fluoropyridin-2-yl)-1H-pyrazol-3-yl)-4,4-difluorocyclohexanecarbox-amide], the IC50 was determined as 13.6 nM at human cathepsin K and 9540 nM at human cathepsin F.

For the compound `C[C@@H](C#N)NC(=O)[C@@H]1CCC(F)(F)C[C@H]1c1nn(-c2ncccc2F)cc1-c1ccc(N2CCS(=O)(=O)CC2)cc1` [Example 34, (1R,2R)-N-((S)-1-cyanoethyl)-2-(4-(4-(1,1-dioxidothiomorpholino)phen-yl)-1-(3-fluoropyridin-2-yl)-1H-pyrazol-3-yl)-4,4-difluorocyclohexanecarbox-amide], the results for the IC50 at human cathepsin K and at human cathepsin F were 5.4 nM and 2830 nM, respectively.

Consider `CC(C)[C@@H](C#N)NC(=O)[C@@H]1CCC(F)(F)C[C@H]1c1nn(-c2ncccc2F)cc1-c1ccc(N2CCS(=N)(=O)CC2)cc1` [Example 35, (1R,2R)-N-((S)-1-cyano-2-methylpropyl)-4,4-difluoro-2-(1-(3-fluoropyridin-2-yl)-4-(4-(1-imino-1-oxidothiomorpholino)phenyl)-1H-pyrazol-3-yl)cyclohexanecarboxamide], for which the figures for the IC50 on human cathepsin K and at human cathepsin F were 9.69 nM and 4890 nM, respectively.

As to `CN=S1(=O)CCN(c2ccc(-c3cn(-c4ncccc4F)nc3[C@@H]3CC(F)(F)CC[C@H]3C(=O)N[C@H](C#N)C(C)C)cc2)CC1` [Example 36, (1R,2R)-N-((S)-1-cyano-2-methylpropyl)-4,4-difluoro-2-(1-(3-fluoropyridin-2-yl)-4-(4-(1-(methylimino)-1-oxidothiomorpholino)phenyl)-1H-pyrazol-3-yl)cyclohexanecarboxamide], the IC50 at human cathepsin K was 8.79 nM; on human cathepsin F it was 8180 nM.

As for `CN=S1(=O)CCN(c2ccc(-c3cn(-c4ccc(F)cn4)nc3[C@@H]3CC[C@H](F)C[C@H]3C(=O)NC3(C#N)CC3)cc2)CC1` [Example 37, (1R,2R,5S)-N-(1-cyanocyclopropyl)-5-fluoro-2-(1-(5-fluoropyridin-2-yl)-4-(4-(1-(methylimino)-1-oxidothiomorpholino)phenyl)-1H-pyrazol-3-yl)cyclohexanecarboxamide], the IC50 was determined as 1.76 nM at human cathepsin K and 1660 nM at human cathepsin F.

Consider `CN=S1(=O)CCN(c2ccc(-c3cn(-c4ccc(F)cn4)nc3[C@@H]3CC[C@H](F)C[C@H]3C(=O)N[C@@H](C)C#N)cc2)CC1` [Example 38, (1R,2R,5S)-N-((S)-1-cyanoethyl)-5-fluoro-2-(1-(5-fluoropyridin-2-yl)-4-(4-(1-(methylimino)-1-oxidothiomorpholino)phenyl)-1H-pyrazol-3-yl)cyclohexanecarboxamide], for which the IC50 came out at 1.14 nM at human cathepsin K and 855 nM at human cathepsin F.

On to `Cc1c(-c2ccc(N3CCS(=O)(=O)CC3)cc2)c([C@@H]2CCCC[C@H]2C(=O)NC2(C#N)CC2)nn1-c1ncccc1F` [Example 41, (1R,2R)-N-(1-cyanocyclopropyl)-2-(4-(4-(1,1-dioxidothiomorpholino)phen-yl)-1-(3-fluoropyridin-2-yl)-5-methyl-1H-pyrazol-3-yl)cyclohexanecarboxamide], for which the figures for the IC50 on human cathepsin K and at human cathepsin F were 8.5 nM and 5390 nM, respectively.

For the compound `Cc1c(-c2ccc(N3CCS(=O)(=O)CC3)cc2)c([C@@H]2CCCC[C@H]2C(=O)N[C@@H](C)C#N)nn1-c1ncccc1F` [Example 42, (1R,2R)-N-((S)-1-cyanoethyl)-2-(4-(4-(1,1-dioxidothiomorpholino)phen-yl)-1-(3-fluoropyridin-2-yl)-5-methyl-1H-pyrazol-3-yl)cyclohexanecarboxamide], the values for the IC50 on human cathepsin K and on human cathepsin F were 3.62 nM and 1990 nM, respectively.

Turning to `Cc1c(-c2ccc(N3CCS(=O)(=O)CC3)cc2)c([C@@H]2CCCC[C@H]2C(=O)N[C@H](C#N)C(C)C)nn1-c1ncccc1F` [Example 43, (1R,2R)-N-((S)-1-cyano-2-methylpropyl)-2-(4-(4-(1,1-dioxidothiomorpholino)phen-yl)-1-(3-fluoropyridin-2-yl)-5-methyl-1H-pyrazol-3-yl)cyclohexanecarboxamide], the IC50 on human cathepsin K is 12.1 nM; at human cathepsin F it was 4550 nM.

Turning to `CN=S1(=O)CCN(c2ccc(-c3c([C@@H]4CCCC[C@H]4C(=O)NC4(C#N)CC4)nn(-c4ncccc4F)c3C)cc2)CC1` [Example 44, (1R,2R)-N-(1-cyanocyclopropyl)-2-(1-(3-fluoropyridin-2-yl)-5-methyl-4-(4-(1-(methylimino)-1-oxidothiomorpholino)phenyl)-1H-pyrazol-3-yl)cyclohexanecarboxamide], the IC50 came out at 13.9 nM at human cathepsin K and 8840 nM on human cathepsin F.

Turning to `C[C@@H](C#N)NC(=O)[C@@H]1CCC(F)(F)C[C@H]1c1nn(-c2ncccc2F)cc1-c1ccc(N2CCS(=N)(=O)CC2)cc1` [Example 45, (1R,2R)-N-((S)-1-cyanoethyl)-4,4-difluoro-2-(1-(3-fluoropyridin-2-yl)-4-(4-(1-imino-1-oxidothiomorpholino)phenyl)-1H-pyrazol-3-yl)cyclohexanecarboxamide], the IC50 at human cathepsin K was 6.61 nM; on human cathepsin F it was 5480 nM.

With `CN=S1(=O)CCN(c2ccc(-c3cn(-c4ncccc4F)nc3[C@@H]3CC(F)(F)CC[C@H]3C(=O)N[C@@H](C)C#N)cc2)CC1` [Example 46, (1R,2R)-N-((S)-1-cyanoethyl)-4,4-difluoro-2-(1-(3-fluoropyridin-2-yl)-4-(4-(1-(methylimino)-1-oxidothiomorpholino)phenyl)-1H-pyrazol-3-yl)cyclohexanecarboxamide], the IC50 came to 5.78 nM on human cathepsin K and 6620 nM on human cathepsin F.

For `CN=S1(=O)CCN(c2ccc(-c3c([C@@H]4CCCC[C@H]4C(=O)N[C@@H](C)C#N)nn(-c4ncccc4F)c3C)cc2)CC1` [Example 47, (1R,2R)-N-((S)-1-cyanoethyl)-2-(1-(3-fluoropyridin-2-yl)-5-methyl-4-(4-(1-(methylimino)-1-oxidothiomorpholino)phenyl)-1H-pyrazol-3-yl)cyclohexanecarboxamide], the IC50 at human cathepsin K was determined as 5.48 nM; at human cathepsin F, 3240 nM.

Consider `CN=S1(=O)CCN(c2ccc(-c3c([C@@H]4CCCC[C@H]4C(=O)N[C@H](C#N)C(C)C)nn(-c4ncccc4F)c3C)cc2)CC1` [Example 48, (1R,2R)-N-((S)-1-cyano-2-methylpropyl)-2-(1-(3-fluoropyridin-2-yl)-5-methyl-4-(4-(1-(methylimino)-1-oxidothiomorpholino)phenyl)-1H-pyrazol-3-yl)cyclohexanecarboxamide], for which the results for the IC50 on human cathepsin K and on human cathepsin F were 19.2 nM and 7350 nM, respectively.

For `Cc1c(-c2ccc(N3CCS(=N)(=O)CC3)cc2)c([C@@H]2CCCC[C@H]2C(=O)NC2(C#N)CC2)nn1-c1ncccc1F` [Example 50, (1R,2R)-N-(1-cyanocyclopropyl)-2-(1-(3-fluoropyridin-2-yl)-4-(4-(1-imino-1-oxidothiomorpholino)phenyl)-5-methyl-1H-pyrazol-3-yl)cyclohexanecarboxamide], the figures for the IC50 at human cathepsin K and on human cathepsin F were 14 nM and 7790 nM, respectively.
